Results on two compounds are retold here after patent US7557573B2, “NMR-based methods for detecting ligands, where the ligand or target are hyperpolarized and the NMR-spectrum is compared with a reference spectrum of the ligand or target” (GE Healthcare AS, priority 2002, dated 2009).

In assay [1] the test system is Src homology domain 2 from growth binding hormone. The note with it: cited from earlier work.
Assay [2] shares this test system. As to the kind of experiment: Hyperpolarised (DNP) 13C-NMR binding assay, ligand free vs bound signals. The note with it: target to ligand ratio 4:1, ligand 24 μM, 25° C., single scan. On the procedure: The sample was placed in the polariser and hyperpolarised overnight (17 h) at 93.934 GHz and 100 mW (DNP method). The sample was brought into solution with phosphate buffer (pH 6.5, 100 mM, 60° C., 8.5 ml). The active dissolution volume was 3 ml with 90% recovery of substance, providing a final concentration of 5.7 μM. […] A liquid state NMR spectrum was acquired in one scan with a 90° pulse angle and acquisition time of 1 s. One NMR signal was obtained at 176.9 ppm from the ^13C-labeled ligand. The signal-to-noise ratio (SNR) of the spectrum was 50.
940 μl of the target solution (100 μM target, 5 mM DTT, 100 mM NaCl, 50 mM phosphate pH 6.5) was placed in 10 mm NMR tube with a bottom plug, reducing the active volume to […]. The tube was placed in a 9.4 T magnet with the temperature of the probe equilibrated to 25° C. A tube was connected to the bottom of the NMR tube to allow for injection of the ligand solution into the target solution.
The sample was placed in the polariser and hyperpolarised overnight (17 h) at 93.934 GHz and 100 mW (DNP method). […]
In this example, the target to ligand concentration ratio was 4:1. […] By varying the ligand to target concentration in the assay it would thus be possible to measure the binding affinity by quantifying the relative amounts of free and bound ligand visible in the spectra based on the knowledge of ligand/target concentrations used in the assay.

For the next assay, the system named is Urease. In words: Hyperpolarised 13C-urea NMR assay of enzymatic conversion and its inhibition. The note with it: 10, 12 and 14 units urease, substrate concentration constant.

Method for Urease: The frozen sample was hyperpolarised for one hour (DNP method). The sample was dissolved in a phosphate buffer (10 mM, pH 7.6, 100° C., 8.5 ml (active dissolution volume 3 ml)) and 500 μl were transferred to a 10 mm NMR tube containing 2.5 ml of a solution (same buffer as for urea) containing 12 units urease (0.1 mg). A series of 40 one-dimensional ^13C spectra were collected as one every 3 s, with a reduced flip angle (15°).
It is possible to calibrate the flip angle, and the relaxation rate for urea is known. […] Another way of calculating the reaction rate for the system is to vary the enzyme concentration while keeping the concentration of substrate constant.
The latter approach was used in a series of experiments that were performed as described above, only the concentration of urease was varied. Three experiments were performed with 10 units, 12 units and 14 units urease. The urease activity was plotted as a function of concentration. From this plot, the reaction rate constant was extracted directly. The NMR signal intensities of urea in the individual experiments have been used to calculate the enzymatic activity.

For the compound (1-^13C)—Ac—EpYINQ—NH2, the “exchange regime of ligand with the target” value in assay [1] is listed as “slow exchange with the target”. The “NMR signals of hyperpolarised ligand in mixture with target (free/bound)” value in assay [2] was “two signals, one from the unbound ligand (176.94 ppm) and one from the bound ligand (176.2 ppm)”. Turning to `NC(N)=O` [urea], in the assay on Urease, the “rate constant for the system (enzymatic conversion of urea)” value was 0.0019 s⁻¹.
